One assay has as its system GTL16. The assay can be described thus: GTL16 cell assay (EC50). The format is cell-based. As to conditions: Homo sapiens, GTL 16; Table 1. The method, then:
Compounds were tested in the following assays in duplicate. 96-well XTT assay: Cells were grown in growth media containing various concentrations of compounds (duplicates) on a 96-well flat bottom plate for 72 hours at 37° C. in 5% CO2. The starting cell number was 5000 cells per well and volume was 120 μl. At the end of the 72-hour incubation, 40 μl of XTT labeling mixture (50:1 solution of sodium 3′-[1-(phenylaminocarbonyl)-3,4-tetrazolium]-bis(4-methoxy-6-nitro) benzene sulfonic acid hydrate and Electron-coupling reagent: PMS (N-methyl dibenzopyrazine methyl sulfate) were added to each well of the plate. After an additional 2-6 hours […] with a spectrophotometer.

Assay [1] addresses MET kinase (c-MET), kinase domain of human Met (Homo sapiens, UniProt P08581). In words: MET luminescence-based enzyme assay (Kinase-Glo). (In general: In Kinase-Glo more light means more ATP remaining.)

SMILES strings stand for the structures.

A word on the EC50: it is the concentration at which the effect is half-maximal. Read a low EC50 as a more potent agent. Usually IC50 stands for the concentration that gives 50% inhibition. Read a high IC50 as weaker potency in that assay.

Sequence of MET kinase (c-MET), kinase domain of human Met (P08581 1078-1345 limits assumed): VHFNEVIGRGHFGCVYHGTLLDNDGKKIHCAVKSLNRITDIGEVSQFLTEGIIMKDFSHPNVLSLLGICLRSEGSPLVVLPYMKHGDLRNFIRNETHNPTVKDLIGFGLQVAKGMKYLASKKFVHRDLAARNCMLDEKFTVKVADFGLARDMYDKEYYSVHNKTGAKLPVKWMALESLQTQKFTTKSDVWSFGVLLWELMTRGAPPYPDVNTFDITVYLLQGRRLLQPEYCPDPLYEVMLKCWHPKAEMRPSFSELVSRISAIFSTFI

The molecule `O=S(=O)(NC1CC1)c1ccc(-c2ccc3nnc(Cc4ccc5ncccc5c4)n3n2)cc1` [compound 1] came in with an EC50 in the assay with GTL16 of 100 to 1000 nM. Also, the IC50 in assay [1] was < 100 nM.
Consider `O=S(=O)(c1ccc(-c2ccc3nnc(Cc4ccc5ncccc5c4)n3n2)cc1)N1CCCC1` [compound 2], for which the EC50 in the assay on GTL16 lay within 100 to 1000 nM. The IC50 in assay [1] lay within 100 to 1000 nM.
Turning to `CCNS(=O)(=O)c1cccc(-c2ccc3nnc(Cc4ccc5ncccc5c4)n3n2)c1` [compound 3], the EC50 in the assay on GTL16 was < 100 nM. In addition, the IC50 in assay [1] was < 100 nM.
`NC(=O)c1ccc(F)c(-c2ccc3nnc(Cc4ccc5ncccc5c4)n3n2)c1` [compound 4] gave an EC50 with GTL16 of 1000 to 10000 nM. In assay [1], this molecule had an IC50 of 100 to 1000 nM.
The molecule `CS(=O)(=O)c1ccc(-c2ccc3nnc(Cc4ccc5ncccc5c4)n3n2)cc1` [compound 5] displayed an EC50 in the assay with GTL16 of 100 to 1000 nM. Further, the IC50 in assay [1] lay in the range of 100 to 1000 nM.
For the molecule `Fc1ccc(Oc2ccc3nnc(Cc4ccc5ncccc5c4)n3n2)cc1` [compound 6], the EC50 with GTL16 lay within 100 to 1000 nM. In assay [1], this molecule displayed an IC50 of 100 to 1000 nM.
Molecule `Fc1ccc(Oc2ccc3nnc(Cc4ccc5ncccc5c4)n3n2)cc1F` [compound 7, 6-[6-(3,4-Difluoro-phenoxy)-[1,2,4]triazolo[4,3-b]pyridazin-3-ylmethyl]-quinoline] yielded an EC50 in the assay with GTL16 of 100 to 1000 nM. In assay [1], this molecule gave an IC50 of 100 to 1000 nM.
`c1ccc(Oc2ccc3nnc(Cc4ccc5ncccc5c4)n3n2)cc1` [compound 8] registered an EC50 in the assay on GTL16 of 100 to 1000 nM. The same molecule had an IC50 in assay [1] of 100 to 1000 nM.
`COc1cccc(Oc2ccc3nnc(Cc4ccc5ncccc5c4)n3n2)c1` [compound 9] showed an EC50 in the assay on GTL16 of 100 to 1000 nM. Also, the IC50 in assay [1] was in the range of 100 to 1000 nM.
The molecule `NS(=O)(=O)c1ccc(Oc2ccc3nnc(Cc4ccc5ncccc5c4)n3n2)cc1` [compound 10] displayed an EC50 with GTL16 of 10000 to 50000 nM. Besides, the IC50 in assay [1] lay within 1000 to 10000 nM.
In turn, `NC(=O)c1ccc(Oc2ccc3nnc(Cc4ccc5ncccc5c4)n3n2)cc1` [compound 11] showed an EC50 with GTL16 of 10000 to 50000 nM. Further, the IC50 in assay [1] lay within 1000 to 10000 nM.
The like results for `CS(=O)(=O)c1ccc(Oc2ccc3nnc(Cc4ccc5ncccc5c4)n3n2)cc1` [compound 12] were, in that order, 10000 to 50000 nM and 1000 to 10000 nM.
In the assay with GTL16, `Oc1ccc(Cc2nnc3ccc(Cl)nn23)cc1` [compound 13] returned an EC50 of 10000 to 50000 nM. The same molecule came in with an IC50 in assay [1] of 1000 to 10000 nM.
On to `Oc1ccc(Cc2nnc3ccc(-c4ccccc4)nn23)cc1` [compound 14], for which the EC50 in the assay with GTL16 was 1000 to 10000 nM. Moreover, the IC50 in assay [1] lay in the range of 100 to 1000 nM.
In the case of `Clc1ccc2nnc(Cc3ccc4ncccc4c3)n2n1` [compound 15, 6-(6-Chloro-[1,2,4]triazolo[4,3-b]pyridazin-3-ylmethyl)-quinoline], the EC50 in the assay with GTL16 was in the range of 1000 to 10000 nM.
In turn, `c1ccc(-c2ccc3nnc(Cc4ccc5ncccc5c4)n3n2)cc1` [compound 16] had an EC50 in the assay on GTL16 of 100 to 1000 nM. The molecule also gave an IC50 in assay [1] of 100 to 1000 nM.
In assay [1], `CC(C)(c1ccc2ncccc2c1)c1nnc2ccc(-c3ccccc3)nn12` [compound 18] showed a concentration for half-maximal inhibition (IC50) of 10000 to 50000 nM.
On to `CC(c1ccc2ncccc2c1)c1nnc2ccc(-c3cccc(F)c3)nn12` (centres unmarked) [compound 20], for which, in the assay on GTL16, the EC50 is < 100 nM. The IC50 in assay [1] is < 100 nM.
The molecule `N#Cc1cccc(-c2ccc3nnc(C(F)c4ccc5ncccc5c4)n3n2)c1` (centres unmarked) [compound 22] came in with an EC50 in the assay on GTL16 of 1000 to 10000 nM. The IC50 in assay [1] fell in the range of 100 to 1000 nM.
`O=C(c1ccc(-c2ccc3nnc(Cc4ccc5ncccc5c4)n3n2)cc1)N1CCOCC1` [compound 23] registered an EC50 in the assay on GTL16 of 100 to 1000 nM. The IC50 in assay [1] is 100 to 1000 nM.
As for `NC(=O)c1ccc(-c2ccc3nnc(Cc4ccc5ncccc5c4)n3n2)cc1` [compound 24], the EC50 in the assay on GTL16 is < 100 nM. In addition, the IC50 in assay [1] was < 100 nM.
`NS(=O)(=O)c1cccc(-c2ccc3nnc(Cc4ccc5ncccc5c4)n3n2)c1` [compound 25] gave an EC50 with GTL16 of 100 to 1000 nM. For the same molecule, the IC50 in assay [1] is < 100 nM.
On to `Cc1ccc2nnc(Cc3c(F)cc4ncc(Br)cc4c3F)n2n1` [compound 28], for which the EC50 in the assay on GTL16 was in the range of 100 to 1000 nM. Moreover, the IC50 in assay [1] was in the range of 1000 to 10000 nM.
As to `CN(C)S(=O)(=O)c1ccc(-c2ccc3nnc(Cc4ccc5ncccc5c4)n3n2)cc1` [compound 29], in the assay with GTL16, the EC50 was in the range of 1000 to 10000 nM. This molecule had an IC50 in assay [1] of 100 to 1000 nM.
For `Fc1cccc(-c2ccc3nnc(Cc4ccc5ncccc5c4)n3n2)c1` [compound 31] the same measures were < 100 nM and < 100 nM.
Consider `NCc1ccc(-c2ccc3nnc(Cc4ccc5ncccc5c4)n3n2)cc1` [compound 32], for which the EC50 in the assay on GTL16 is < 100 nM. Moreover, the IC50 in assay [1] was < 100 nM.
Consider `O=C(NC1CCCC1)c1cccc(-c2ccc3nnc(Cc4ccc5ncccc5c4)n3n2)c1` [compound 33], for which the EC50 in the assay with GTL16 lay within 100 to 1000 nM. Besides, the IC50 in assay [1] lay within 100 to 1000 nM.
As to `CN(C)C(=O)c1ccc(-c2ccc3nnc(Cc4ccc5ncccc5c4)n3n2)cc1` [compound 34], the EC50 in the assay on GTL16 is 100 to 1000 nM. Moreover, the IC50 in assay [1] lay in the range of 100 to 1000 nM.
In turn, `Cc1ccc2cc(Cc3nnc4ccc(-c5ccccc5)nn34)ccc2n1` [compound 38, 2-Methyl-6-(6-phenyl-[1,2,4]triazolo[4,3-b]pyridazin-3-ylmethyl)-quinoline] came in with an IC50 in assay [1] of 1000 to 10000 nM.
In assay [1], `c1ccc(-c2ccc3nnc(CCc4ccc5ncccc5c4)n3n2)cc1` [compound 39] returned an IC50 of 10000 to 50000 nM.
Consider `c1ccc(-c2ccc3nnc([C@H]4C[C@@H]4c4ccc5ncccc5c4)n3n2)cc1` [compound 40], for which the IC50 in assay [1] lay in the range of 10000 to 50000 nM.
On to `Clc1nc2ccc(Cc3nnc4ccc(-c5ccccc5)nn34)cc2s1` [compound 44], for which, in assay [1], the IC50 lay within 1000 to 10000 nM.
Take `N#Cc1cccc(-c2ccc3nnc(Cc4ccc5ncccc5c4)n3n2)c1` [compound 59]: the EC50 with GTL16 is < 100 nM.
As to `N#Cc1ccc(-c2ccc3nnc(Cc4ccc5ncccc5c4)n3n2)cc1` [compound 60], in the assay with GTL16, the EC50 fell in the range of 100 to 1000 nM.
As for `Fc1ccc(-c2ccc3nnc(Cc4ccc5ncccc5c4)n3n2)cc1F` [compound 73], in the assay on GTL16, the EC50 is < 100 nM.
`Cc1cc(Cc2nnc3ccc(-c4cnn(C)c4)nn23)cc2cccnc12` [compound 91]: the IC50 in assay [1] was 1000 to 10000 nM.
On the same count and under the same terms, in the case of `Cn1cc(-c2ccc3nnc(Cc4cc(F)c5ncccc5c4)n3n2)cn1` [compound 92] it was 1000 to 10000 nM.
On to `Fc1cccc(-c2ccc3nnc(Cc4ccc5ncsc5c4)n3n2)c1` [compound 93], for which, in assay [1], the IC50 lay within 1000 to 10000 nM.
Regarding `Fc1cc(F)cc(-c2ccc3nnc(Cc4ccc5ncsc5c4)n3n2)c1` [compound 97], the IC50 in assay [1] lay in the range of 100 to 1000 nM.
The molecule `C[C@H](c1ccc2ncsc2c1)c1nnc2ccc(-c3cccc(C#N)c3)nn12` [compound 104, I-3-[3-(1-Benzothiazol-6-yl-ethyl)-[1,2,4]triazolo[4,3-b]pyridazin-6-yl]-benzonitrile] displayed an IC50 in assay [1] of 100 to 1000 nM.
Still for that read-out and setting: next, `Cc1ccc2nnc(Cc3ccc4ncccc4c3)n2n1` [compound 105]: 100 to 1000 nM; `Cc1ccc2nnc(Cc3ccc4ncc(Br)cc4c3)n2n1` [compound 106]: 100 to 1000 nM.
`Cn1cc(-c2ccc3nnc(Cc4c[nH]c5ncccc45)n3n2)cn1` [compound 108, 6-(1-Methyl-1H-pyrazol-4-yl)-3-(1H-pyrrolo[2,3-b]pyridine-3-ylmethyl)-[1,2,4]triazolo[4,3-b]pyridazine]: in the assay with GTL16, the EC50 was < 100 nM.
Take `Cc1ccc2nnc(Cc3ccc4ncc(C#N)cc4c3)n2n1` [compound 110, 6-(6-Methyl-[1,2,4]triazolo[4,3-b]pyridazin-3-ylmethyl)-quinoline-3-carbonitrile]: the IC50 in assay [1] lay within 1000 to 10000 nM.
`CCc1ccc2nnc(Cc3c(F)cc4ncc(Br)cc4c3F)n2n1` [compound 115] came in with an IC50 in assay [1] of 100 to 1000 nM.
Consider `CCc1cnc2ccc(Cc3nnc4ccc(C)nn34)cc2c1` [compound 116, 3-Ethyl-6-(6-methyl-[1,2,4]triazolo[4,3-b]pyridazin-3-ylmethyl)-quinoline], for which the IC50 in assay [1] is < 100 nM.
Turning to `Cc1ccc2nnc(C(C)c3ccc4ncc(Br)cc4c3)n2n1` (centres unmarked) [compound 119, 3-Bromo-6-[1-(6-methyl-[1,2,4]triazolo[4,3-b]pyridazin-3-yl)-ethyl]-quinoline], the IC50 in assay [1] was < 100 nM.
Take `CCc1ccc2nnc(Cc3ccc4ncc(Br)cc4c3F)n2n1` [compound 121]: the IC50 in assay [1] lay within 100 to 1000 nM.
`Cc1ccc2nnc(Cc3ccc4ncc(-n5cccn5)cc4c3)n2n1` [compound 127] had an IC50 in assay [1] of 100 to 1000 nM.
The molecule `Cc1ccc2nnc(Cc3ccc4ncc(-c5c[nH]nc5C)cc4c3)n2n1` [compound 150] had an IC50 in assay [1] of 100 to 1000 nM.
In assay [1], `Cc1ccc2nnc(Cn3ccc4ncc(-c5cnn(C)c5)cc43)n2n1` [compound 178] registered an IC50 of 1000 to 10000 nM.
Still for that read-out and setting: in the case of `Cc1ccc2nnc(Cc3ccc4ncc(-c5cnn(C6CN(C)C6)c5)cc4c3)n2n1` [compound 183] it was < 100 nM; in that of `CCc1ccc2nnc(Cc3ccc4ncc(-c5cnn(C6CNC6)c5)cc4c3F)n2n1` [compound 184], < 100 nM.
Take `CCc1ccc2nnc(Cc3c(F)cc4ncc(-c5cnn(C6CNC6)c5)cc4c3F)n2n1` [compound 185]: the IC50 in assay [1] is < 100 nM.
For the molecule `CCc1ccc2nnc(Cc3ccc4ncc(-c5cnn(C6CN(CC)C6)c5)cc4c3F)n2n1` [compound 186], the IC50 in assay [1] is < 100 nM.
As to `CCc1ccc2nnc(Cc3c(F)cc4ncc(-c5cnn(C6CN(CC)C6)c5)cc4c3F)n2n1` [compound 187], in assay [1], the IC50 is < 100 nM.
As to `CCN1CC(n2cc(-c3cnc4cc(F)c(Cc5nnc6ccc(C)nn56)c(F)c4c3)cn2)C1` [compound 188], the IC50 in assay [1] was < 100 nM.
On to `CCc1ccc2nnc(Cc3ccc4ncc(-c5cnn(C6CNC6)c5)cc4c3)n2n1` [compound 189], for which the IC50 in assay [1] was < 100 nM.
On to `CCN1CC(n2cc(-c3cnc4ccc(C(C)c5nnc6ccc(C)nn56)cc4c3)cn2)C1` (centres unmarked) [compound 190], for which the IC50 in assay [1] is < 100 nM.
`Cc1ccc2nnc(C(C)c3ccc4ncc(-c5cnn(C)c5)cc4c3)n2n1` (centres unmarked) [compound 191]: the IC50 in assay [1] was < 100 nM.

The record behind these values is patent publication US8071581B2, “Triazolopyridazine protein kinase modulators” (SGX Pharmaceuticals, Inc., priority 2006, dated 2011).
